Data on 3 compounds can be found in patent publication US20020161013A1, “Method of local anesthesia and analgesia” (priority 2001, published 2002).

The test system of data set [1] is rabbits. Also on record: species or system New Zealand white rabbits. As to conditions: rabbit, in vivo.
The test system of data set [2] is rabbits. Also on record: species or system New Zealand white rabbits. As to conditions: rabbit, in vivo. This is another data set of the same source.
In data set [3] the test system is rabbit eyes. Also on record: species or system New Zealand white rabbits. As to conditions: in vivo.
For data set [4] the following is noted: cited from earlier work.
For data set [5], the system named is rabbit eyes. As to conditions: in vivo.

Structures are written as SMILES. Counter-ions that a name gives are not always drawn. Like-named read-outs stand apart in the source and are kept apart here. Bounds are passed on as bounds.

With `NC1=N[C@H](O)[C@H]2[C@H]3O[C@]4(O)O[C@@H]([C@@H](O)[C@@]2(N1)[C@@H]4O)[C@]3(O)CO` [TTX, tetrodotoxin], in the data set on rabbits [1], the “abnormalities in other animals of the group” value was “No significant abnormalities”; the “adverse signs in the TTX-treated eye” value is “conjunctival congestion, hydrops (++) and lacrimation”; the local anesthesia result is reported as “local anesthesia to some extent”; the toxic signs observed result was “Signs of convulsion, rigidity and death”. For the same compound, in the data set on rabbits [2], the general examination findings result was “No changes of food-taking pattern, movement, respiration or alertness”; the toxic signs observed result was “Signs of convulsion, rigidity and death”. Besides, in the data set on rabbit eyes [3], the “local anesthesia by retrobulbar injection compared with lidocaine” value was “much more potent”, the local anesthesia effect result is reported as “weak effect” and the “local anesthesia in the treated eyes” value is listed as “showed local anesthesia in the treated eyes to various extents”.
As to `CCCCN1CCCCC1C(=O)Nc1c(C)cccc1C` (stereo not shown) [bupivacaine], the “residual diplopia next morning” value in data set [4] (bupivacaine, ophthalmic applications) is “up to 70 % of patients”. The duration of action in data set [4] (bupivacaine, peripheral nerve block) is at most 24 h.
For the compound `CCN(CC)CC(=O)Nc1c(C)cccc1C` [lidocaine, lidocaine hydrochloride, reference compound], the duration of action result in data set [4] (in vivo) is “over 20 minutes”; with rabbit eyes [3] it was 0.34 h. For the same compound, the onset entry in data set [4] (in vivo) is “about 2 minutes”; with rabbit eyes [3], 1.94 min. The “magnitude of ERG b wave versus controls” value in the data set with rabbit eyes [5] was “Neither were differences found”.
